# Data published in the SangsterLogP compilation.
# Experiment: method code SF-AS, from DOI: 10.1016/0165-022x(96)00008-5, PMID: 8844325
row,Compound,logP
1,CC(C)(C)[N+]([O-])=Cc1ccc(Cl)cc1,2.39
2,Cc1ccccc1C=[N+]([O-])C(C)(C)C,1.53
3,CC(C)(C)[N+]([O-])=Cc1cccc(O)c1,1
4,CC(C)(C)[N+]([O-])=Cc1ccncc1,0.4
5,CC(C)(C)[N+]([O-])=Cc1ccc(C(=O)O)cc1,1.05
6,CC(C)(C)[N+]([O-])=Cc1ccc(Br)cc1,1.98
7,CC(C)(C)[N+]([O-])=Cc1ccccc1O,1.31
8,CC(C)(C)[N+]([O-])=Cc1ccccc1Br,2.52
9,CC1(C)C=[N+]([O-])C(C)(C)C1,-0.15
10,Cc1cccc(C=[N+]([O-])C(C)(C)C)c1,1.58
11,CC(C)(C)[N+]([O-])=Cc1ccc(C#N)cc1,0.52
12,CC(C)(C)[N+]([O-])=Cc1cc[n+]([O-])cc1,-0.82
13,CC(C)(C)[N+]([O-])=Cc1ccccc1[N+](=O)[O-],0.84
14,CC1(C)CCC(c2ccccc2)=[N+]1[O-],1.03
15,CC(C)(C)[N+]([O-])=Cc1ccc([N+](=O)[O-])cc1,1.39
16,CC1(C)CCC(C(F)(F)F)=[N+]1[O-],0.2
17,CC(C)(C)[N+]([O-])=Cc1cccc([N+](=O)[O-])c1,1.3
18,CC(C)(C)[N+]([O-])=Cc1ccc(O)cc1,0.58
19,COc1cccc(C=[N+]([O-])C(C)(C)C)c1,1.41
20,COc1cc(OC)c(C=[N+]([O-])C(C)(C)C)c(OC)c1,1.19
